The values that follow come from patent publication US20210380548A1, “Fused [1,2,4]Thiadiazine Derivatives Which Act as KAT Inhibitors of the MYST Family” (CTxT Pty Limited, priority 2017, published 2021).

Test [1] addresses T1, MOF-KAT8 (Homo sapiens, UniProt Q9H7Z6).
T1 sequence (Q9H7Z6 177-447): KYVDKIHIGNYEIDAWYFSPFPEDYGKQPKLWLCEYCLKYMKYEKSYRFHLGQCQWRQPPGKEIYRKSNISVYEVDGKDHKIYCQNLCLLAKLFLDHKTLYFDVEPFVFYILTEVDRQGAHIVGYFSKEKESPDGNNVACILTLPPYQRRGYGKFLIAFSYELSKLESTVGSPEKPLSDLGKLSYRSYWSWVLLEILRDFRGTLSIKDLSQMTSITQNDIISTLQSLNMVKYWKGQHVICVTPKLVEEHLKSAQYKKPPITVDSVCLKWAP
The experiment in a line: Revised Acetyltransferase Biochemical Assay, KAT8.

Test [2] concerns the target T2, HBO-KAT7 (Homo sapiens, UniProt O95251).
T2 construct: encoding amino acid residues 325 to 611 (Uniprot 095251-1) of human KAT7; made in house; host or cells: E. coli BL21 DE3 RIL
The experiment in a line: Acetyltransferase biochemical assay (AlphaScreen), KAT7. Conditions: Table 3 (HBO-KAT7); 0.4 μM Acetyl coenzyme A, histone H3.1, 40 nM enzyme. A general note: Alpha assays give light when donor and acceptor beads are brought close together.

Test [3] has as its system histone H3K23 acetylation (KATE mediated) in U2OS cells. The experiment in a line: Histone H3 Lysine 23 Acetylation Biomarker Assay (U2OS). Type of test: cell-based. Conditions: Homo sapiens, 96 well, 24 hours incubation. On the procedure: Compounds may be tested for their ability to inhibit acetylation of the histone H3K23 marker, which is KATE mediated, in the following assay:
The cell line U2OS was seeded at a density of 9,000 cells per well in 96 well optical quality tissue culture plates in RPMI medium and 10% foetal bovine serum, and allowed to adhere for 24 hours under standard culture conditions (37 degree Celsius, 5% CO2). At the end of this period the medium was aspirated. Compound dilutions prepared in DMSO were added to medium, with negative control wells reserved for treatment with DMSO only and 100% inhibition positive controls receiving a potent inhibitor compound (e.g. cas 2055397-28-7, benzoic acid, 3-fluoro-5-(2-pyridinyl)-, 2-[(2-fluorophenyl)sulfonyl]hydrazide) (Baell, J., Nguyen, H. N., Leaver, D. J., Cleary, B. L., Lagiakos, H. R., Sheikh, B. N., Thomas. T. J., Aryl sulfonohydrazides, WO2016198507A1, 2016) at 10 μM concentration and 200 μL transferred to the cells. After incubation for 24 hours, the cells were fixed with 3.7% formaldehyde in PBS for 20 minutes at room temperature, washed (5×5 minutes) with phosphate buffer saline containing 0.1% Tween 20 and blocked with Odyssey blocking buffer (LI-COR, Lincoln, Nebr.) containing 0.1% TritonX100. Anti-H3K23ac specific antibody (Abcam ab177275) in Odyssey blocking buffer containing 0.1% Tween 20 was added and incubated for 16 hours at 4 degree Celsius. After washing (as above), a secondary antibody labelled with Alexa647 dye (LifeTechnologies) and Hoechst 33342 (1 μg/mL, SigmaAldrich) were added for 1 hour incubation. Plates were washed as previously and read on a PerkinElmer Phenix high content imaging platform. Using a Columbus image analysis pipeline, individual nuclei were located by Hoechst 33342 stain and the acetylation level was calculated from the Alexa647-related intensity in the same area. The resulting mean intensity per cell was directly converted to percent inhibition relative to controls on the same plate and the data fitted against a four-parameter logistic model to determine the 50% inhibitory concentration (IC50).

Test [4] has as its target T3, TIP60-KAT5 (Homo sapiens, UniProt Q92993).
T3 construct: encoding amino acid residues 2 to 461 (Uniprot Q92993-2) of human KAT5 isoform; made in house; host or cells: E. coli BL21 DE3
The experiment in a line: Revised Acetyltransferase Biochemical Assay, KAT5. Conditions: 10 nM KAT5, 1 μM AcCoA, 100 nM histone H4, 90 min.

The target of test [5] is T2, HBO-KAT7. The test is described as follows: Revised Acetyltransferase Biochemical Assay, KAT7. Conditions: Table 9 (HBO-KAT7), 1 μM Acetyl coenzyme A.
For test [6], the target named is T4, MOZ-KAT6A (Homo sapiens, UniProt Q92794, A567V).
T4 construct: encoding amino acid residues 507 to 778 (Uniprot Q92794-1) of human KAT6A; made in house; host or cells: E. coli BL21 DE3
The experiment in a line: Revised Acetyltransferase Biochemical Assay, KAT6A. Conditions: Table 8 (MOZ-KAT6A), 1 μM Acetyl coenzyme A.

Test [7] addresses T3, TIP60-KAT5. The test is described as follows: Acetyltransferase biochemical assay (AlphaScreen), KAT5. Conditions: Table 1 (TIP60-KAT5); 0.4 μM Acetyl coenzyme A, histone H4, 10 nM enzyme.
Test [8] addresses T4, MOZ-KAT6A. The experiment in a line: Acetyltransferase biochemical assay (AlphaScreen), KAT6A. Conditions: Table 2 (MOZ-KAT6A); 10 μM Acetyl coenzyme A, histone H3.1, 5 nM enzyme.
Test [9] deals with histone H2A.Z Lysine 7 acetylation (TIP60 mediated) in U2OS cells. The experiment in a line: H2A.Z Lysine 7 Acetylation Biomarker Assay (384-well, U2OS). Type of test: cell-based. Conditions: Homo sapiens, serum free medium, 24 hours incubation. On the procedure:
Compounds may be tested for their ability to inhibit the histone H2A.Z Lysine 7 acetylation marker (which is TIP60 mediated) in the following assay:
The cell line U2OS was seeded at a density of 3,000 cells per well in 384-well optical quality tissue culture plates in RPMI medium supplemented with 10% foetal bovine serum and 10 mM Hepes. The cells were allowed to adhere for 24 hours under standard culture conditions (37 degree Celsius, 5% CO2). At the end of this period the cells were washed with serum free medium. […] After incubation for 24 hours, the cells were fixed with 4% formaldehyde in PBS for 15 minutes at room temperature, washed with phosphate buffer saline and blocked with blocking buffer containing 0.2% TritonX100 and 2% BSA. Anti-H2A.ZK7ac specific antibody (Abcam) in blocking buffer was added and incubated overnight at 4 degree Celsius. After washing, a secondary antibody labelled with AlexaFluor 488 dye (ThermoFisher) and Hoechst 33342 (1 μg/mL, Life Technologies) were added for 2 hours incubation at room temperature. Plates were washed and read on a PerkinElmer Opera HCS high content imaging platform. Using a Columbus image analysis pipeline, individual nuclei were located by Hoechst 33342 stain and the acetylation level was calculated from the AlexaFluor 488-related intensity in the same area. The resulting mean intensity per cell was converted to percent inhibition relative to controls on the same plate and the data fitted against a four-parameter logistic model to determine the 50% inhibitory concentration (IC50).

Test [10] deals with T1, MOF-KAT8. The experiment in a line: Acetyltransferase biochemical assay (AlphaScreen), KAT8. Conditions: Table 4 (MOF-KAT8); 0.4 μM Acetyl coenzyme A, histone H4, 20 nM enzyme.
In test [11] the test system is histone H3 Lysine 14 acetylation (HBO1 mediated) in U2OS cells. The experiment in a line: Histone H3 Lysine 14 Acetylation Biomarker Assay (384-well, U2OS). Type of test: cell-based. Conditions: Homo sapiens, serum free medium, 24 hours incubation. On the procedure:
Compounds may be tested for their ability to inhibit acetylation of the histone H3 Lysine 14 (which is HBO1 mediated) marker in the following assay:
The cell line U2OS was seeded at a density of 3,000 cells per well in 384-well optical quality tissue culture plates in RPMI medium supplemented with 10% foetal bovine serum and 10 mM Hepes. The cells were allowed to adhere for 24 hours under standard culture conditions (37 degree Celsius, 5% CO2). At the end of this period the cells were washed with serum free medium. Compound dilutions prepared in DMSO were added to the serum free medium, with negative control wells reserved for treatment with DMSO only and 100% inhibition positive controls receiving a potent inhibitor compound (e.g. (Z)-4-fluoro-N-((3-hydroxyphenyl)sulfonyl)-5-methyl-[1,1′-biphenyl]-3-carbohydrazonic acid) at 10 μM concentration. After incubation for 24 hours, the cells were fixed with 4% formaldehyde in PBS for 15 minutes at room temperature, washed with phosphate buffer saline and blocked with blocking buffer containing 0.2% TritonX100 and 2% BSA. Anti-H3K14ac specific antibody (Cell Signalling Technologies) in blocking buffer was added and incubated overnight at 4 degree Celsius. After washing, a secondary antibody labelled with AlexaFluor 488 dye (ThermoFisher) and Hoechst 33342 (1 μg/mL, Life Technologies) were added for 2 hours incubation at room temperature. Plates were washed and read on a
PerkinElmer Opera HCS high content imaging platform. Using a Columbus image analysis pipeline, individual nuclei were located by Hoechst 33342 stain and the acetylation level was calculated from the AlexaFluor 488-related intensity in the same area. The resulting mean intensity per cell was converted to percent inhibition relative to controls on the same plate and the data fitted against a four-parameter logistic model to determine the 50% inhibitory concentration (IC50).

T2 sequence (O95251 with tags, fused parts or gaps): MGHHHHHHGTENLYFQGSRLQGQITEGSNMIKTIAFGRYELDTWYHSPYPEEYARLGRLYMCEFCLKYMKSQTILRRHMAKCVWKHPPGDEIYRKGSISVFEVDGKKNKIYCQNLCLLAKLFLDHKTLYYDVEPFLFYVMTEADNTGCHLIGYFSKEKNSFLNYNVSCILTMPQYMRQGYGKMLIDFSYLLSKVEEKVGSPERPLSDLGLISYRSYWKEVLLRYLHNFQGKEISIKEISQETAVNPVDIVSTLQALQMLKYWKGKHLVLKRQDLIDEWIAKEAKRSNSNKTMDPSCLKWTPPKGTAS
T4 sequence (Q92794 507-778 A567V limits assumed): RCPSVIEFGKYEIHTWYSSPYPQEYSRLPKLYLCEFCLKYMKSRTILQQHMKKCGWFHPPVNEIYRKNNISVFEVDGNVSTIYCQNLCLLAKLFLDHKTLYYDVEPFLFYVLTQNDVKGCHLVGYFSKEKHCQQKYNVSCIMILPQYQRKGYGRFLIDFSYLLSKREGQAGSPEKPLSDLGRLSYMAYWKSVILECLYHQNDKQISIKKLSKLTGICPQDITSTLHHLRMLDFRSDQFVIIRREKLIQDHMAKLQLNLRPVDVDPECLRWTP
T3 sequence (Q92993 2-461 isoform Q92993-2): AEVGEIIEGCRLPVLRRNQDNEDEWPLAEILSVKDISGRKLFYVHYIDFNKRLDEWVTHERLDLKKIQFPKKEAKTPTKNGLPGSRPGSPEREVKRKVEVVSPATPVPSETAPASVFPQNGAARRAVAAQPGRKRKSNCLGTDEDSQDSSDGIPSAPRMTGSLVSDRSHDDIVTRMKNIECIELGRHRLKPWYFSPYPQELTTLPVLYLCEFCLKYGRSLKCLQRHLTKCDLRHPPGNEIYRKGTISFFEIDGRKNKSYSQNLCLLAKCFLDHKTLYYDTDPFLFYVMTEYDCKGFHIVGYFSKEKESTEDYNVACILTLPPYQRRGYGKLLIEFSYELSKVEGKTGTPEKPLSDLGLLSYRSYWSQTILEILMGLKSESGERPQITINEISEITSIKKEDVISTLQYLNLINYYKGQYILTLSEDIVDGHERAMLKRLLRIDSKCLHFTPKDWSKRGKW

Turning to `O=C(NCC(O)c1ccccc1OC(F)F)C1=Nc2ccc(I)cc2S(=O)(=O)N1` (stereo not drawn) [Example 57, N-(2-(2-(difluoromethoxy)phenyl)-2-hydroxyethyl)-7-iodo-2H-benzo[e][1,2,4]thiadiazine-3-carboxamide 1,1-dioxide], the IC50 (as a rule, the concentration needed to halve the response being measured) at MOF-KAT8 [1] is 11.3 µM; on HBO-KAT7 [2], 2.53 µM; in test [3], over 10 µM; at TIP60-KAT5 [4], 0.725 µM; on HBO-KAT7 [5], 0.84 µM; on MOZ-KAT6A [6] it was 0.403 µM. The same compound displayed an IC50 at TIP60-KAT5 [7] of 2.8 µM.

On to `O=C(NCC(c1ccccc1)c1ncco1)C1=Nc2ccncc2S(=O)(=O)N1` (stereo not drawn) [Example 97], for which the IC50 against HBO-KAT7 [2] was 49.4 µM; against MOZ-KAT6A [8], 4 µM; in test [3], over 10 µM; on TIP60-KAT5 [4] it was 26.1 µM; against MOZ-KAT6A [6] it was 0.417 µM; at TIP60-KAT5 [7], over 125 µM.

Take `COc1ccccc1C(CNC(=O)C1=Nc2ccc(Cl)cc2S(=O)(=O)N1)c1ncco1` (stereo not drawn) [Example 178]: the IC50 was 20.5 µM in test [9]; 61 µM at MOF-KAT8 [1]; 0.571 µM on HBO-KAT7 [2]; 0.852 µM at TIP60-KAT5 [4]; 0.112 µM against HBO-KAT7 [5]; 106 µM at MOF-KAT8 [10]. In addition, the IC50 against MOZ-KAT6A [6] is 0.021 µM.

Turning to `COc1ccccc1C(CNC(=O)C1=Nc2ccc(I)cc2S(=O)(=O)N1)c1ncco1` (stereo not drawn) [Example 184, 7-iodo-N-(2-(2-methoxyphenyl)-2-(oxazol-2-yl)ethyl)-2H-benzo[e][1,2,4]thiadiazine-3-carboxamide 1,1-dioxide], the IC50 is 8.28 µM in test [9]; 10.2 µM at MOF-KAT8 [1]; 0.099 µM on TIP60-KAT5 [4]; 0.114 µM at HBO-KAT7 [5]; 9.22 µM on MOF-KAT8 [10]; 0.008 µM on MOZ-KAT6A [6].

Take `COc1cccc(C(CNC(=O)C2=Nc3ccc(Br)cc3S(=O)(=O)N2)c2ncco2)c1` (stereo not drawn) [Example 188, 7-bromo-N-(2-(3-methoxyphenyl)-2-(oxazol-2-yl)ethyl)-2H-benzo[e][1,2,4]thiadiazine-3-carboxamide 1,1-dioxide]: the IC50 against MOF-KAT8 [1] was 54.3 µM; against TIP60-KAT5 [4] it was 1.44 µM; in test [11], 0.427 µM; at HBO-KAT7 [5], 0.215 µM; against MOF-KAT8 [10], 39.8 µM; at MOZ-KAT6A [6] it was 0.041 µM.

As for `CC(O)c1ccc2c(c1)S(=O)(=O)NC(C(=O)NCC(c1ccccc1)c1ncco1)=N2` (stereo not drawn) [Example 212, 7-(1-Hydroxyethyl)-N-(2-(oxazol-2-yl)-2-phenylethyl)-2H-benzo[e][1,2,4]thiadiazine-3-carboxamide 1,1-dioxide], the IC50 against TIP60-KAT5 [4] was 4 µM; in [11], 4.15 µM; against HBO-KAT7 [5] it was 1.09 µM; against MOF-KAT8 [10], 40.8 µM; at MOZ-KAT6A [6], 0.241 µM.

`Cc1cccc(C(CNC(=O)C2=Nc3ccc(Cl)cc3S(=O)(=O)N2)c2ncco2)c1` (stereo not drawn) [Example 234, 7-chloro-N-(2-(oxazol-2-yl)-2-(m-tolyl)ethyl)-2H-benzo[e][1,2,4]thiadiazine-3-carboxamide 1,1-dioxide]: the IC50 is 6.15 µM in test [9]; 23.6 µM against MOF-KAT8 [1]; 1.37 µM against TIP60-KAT5 [4]; 0.089 µM against HBO-KAT7 [5]; 57.3 µM against MOF-KAT8 [10]; 0.072 µM on MOZ-KAT6A [6].

Consider `O=C(NCC(c1ncco1)c1ccccc1F)C1=Nc2ccc(I)cc2S(=O)(=O)N1` (stereo not drawn) [Example 235, N-(2-(2-fluorophenyl)-2-(oxazol-2-yl)ethyl)-7-iodo-2H-benzo[e][1,2,4]thiadiazine-3-carboxamide 1,1-dioxide], for which the IC50 in test [9] was 1.08 µM; against MOF-KAT8 [1], 3.23 µM; at TIP60-KAT5 [4] it was 0.034 µM; against HBO-KAT7 [5] it was 0.115 µM; against MOF-KAT8 [10], 6.59 µM; against MOZ-KAT6A [6], 0.009 µM.

In the case of `O=C(NCC(c1ncco1)c1ccccc1F)C1=Nc2ccc(Cl)cc2S(=O)(=O)N1` (stereo not drawn) [Example 236, 7-chloro-N-(2-(2-fluorophenyl)-2-(oxazol-2-yl)ethyl)-2H-benzo[e][1,2,4]thiadiazine-3-carboxamide 1,1-dioxide], the IC50 was 7.85 µM in test [9]; 19.6 µM on MOF-KAT8 [1]; 0.113 µM against TIP60-KAT5 [4]; 0.073 µM at HBO-KAT7 [5]; 20.2 µM against MOF-KAT8 [10]; 0.01 µM against MOZ-KAT6A [6].

As for `O=C(NCC(c1ccccn1)n1cccn1)C1=Nc2ccc(Br)cc2S(=O)(=O)N1` (stereo not drawn) [Example 244, N-(2-(1H-Pyrazol-1-yl)-2-(pyridin-2-yl)ethyl)-7-bromo-4H-benzo[e][1,2,4]thiadiazine-3-carboxamide 1,1-dioxide], the IC50 at TIP60-KAT5 [4] is 14.6 µM; in [11], over 40 µM; against HBO-KAT7 [5], 3.83 µM; on MOF-KAT8 [10] it was 82.9 µM; against MOZ-KAT6A [6], 6.83 µM.
